Among the data in patent publication US20260297060A1, “COMPOUNDS FOR THE DEGRADATION OF MUTANT BRAF” (C4 THERAPEUTICS, INC., priority 2023, published 2026) are concentration values, retold here.

Series [1] in a line: Example 8 pharmacokinetics assay for efficacy study (plasma, liver). Conditions: mouse, po, 10 mg/kg, p.o. The series is classed as in vivo, BALB/c nude mice. How it is done: For efficacy study, agents were tested in the A375 human melanoma xenografts model. Compound 8, Compound 26, and Compound 38 were administered to BALB/c nude mice bearing A375 xenografts from day 0 and dosed p.o. twice per day (BID). Compound 8 and Compound 26 were dosed at 10 mg/kg for 21 days. Compound 38 was dosed at 10 mg/kg for 10 days. The known BRAF inhibitor encorafenib was used as a positive control. encorafenib was administered from day 1 and dosed p.o. daily (QD) for 21 days and dosed at 35 mg/kg.
The plasma samples were collected at predetermined time points for PK analysis. For non-termination plasma collection, blood samples were collected into the 1.5 mL Eppendorf tubes containing 3 μL of 0.5 M EDTA-K2. For termination plasma collection, the mice were euthanized at predetermined time points post the treatment and the blood samples were collected into the 1.5 mL Eppendorf tubes containing 15 μL of 0.5 M EDTA-K2. And then the anticoagulant blood samples were centrifuged at 2,500 g at 4° C. for 15 minutes. The plasma samples were separated into 2 aliquots. The 1st was used for PK analysis, and the 2nd served as backup. The samples were stored at −80° C. before bioanalysis.
(§1) Liver samples were collected at predetermined time points for PK analysis. The left lobe of the liver was dissected out and split into 2 parts. The 1st part was used for PK analysis and the 2nd part served as the backup for the study. The samples were transferred into pre-labeled tubes and quickly froze in liquid nitrogen within 2 minutes after dissection. The samples were stored at −80° C. before bioanalysis.
The harvested plasma and liver samples were processed for pharmacokinetics analysis by LC-MS/MS with a concentration range of 2.0~2000 ng/mL for encorafenib in plasma and liver homogenate, 10.0-10,000 ng/mL for Compound 8 and Compound 38 in plasma and liver homogenate, 20.0~20,000 ng/mL for Compound 26 in plasma and liver homogenate.

A short description of series [2]: Example 9 pharmacokinetics assay for efficacy study Part I and II (plasma, liver). The note with it: mouse, po, 10 mg/kg, p.o., BID × 14 days, 6 h following treatment, ± SEM. The series is classed as in vivo, BALB/c nude mice. The protocol: For efficacy study Part I, agents were tested in the A375 human melanoma xenografts. Compound 218 and Compound 157 were administered to BALB/c nude mice bearing A375 xenografts from day 0 and dosed twice a day (BID) for 14 days. Compound 218 and Compound 157 were dosed at 10 mg/kg via p.o.. Dabrafenib was administered from day 1 daily (QD) for 14 days and dosed at 100 mg/kg via p.o..
For efficacy study Part II, agents were tested in the A375 human melanoma xenografts model. Compound 133, Compound 144 and Compound 198 were administered to BALB/c nude mice bearing A375 xenografts from day 0 and dosed twice a day (BID) for 14 days. Compound 133, Compound 144 and Compound 198 were dosed at 10 mg/kg via p.o..
The plasma samples were collected at predetermined time points for PK analysis. The mice were euthanized at predetermined time points post the treatment. The blood samples were collected into the 1.5 mL Eppendorf tubes containing 15 μL of 0.5 M EDTA-K2. And then the anticoagulant blood samples were centrifuged at 2,500 g at 4° C. for 15 minutes. The plasma samples were separated into 2 aliquots. The 1st was used for PK analysis, and the 2nd served as backup. The samples were stored at −80° C. before bioanalysis.
as §1
The harvested plasma and liver samples were processed for pharmacokinetics analysis by LC-MS/MS with a concentration range of 1.00-1,000 ng/mL for Dabrafenib in plasma and liver homogenate, 10.0-10,000 ng/mL for Compound 218, Compound 157, Compound 133, Compound 144 and Compound 198 in plasma and liver homogenate.

[3] abbreviates: liver, BID × 21 days, read-out: Concentration in Liver (mean ± SEM).
The mark [4] stands for this setting: plasma, BID × 21 days, read-out: Concentration in Plasma (mean ± SEM).
The mark [5] stands for this setting: liver, read-out: Mean Concentration in Liver.
Setting [6] is: plasma, read-out: Mean Concentration in Plasma.

For `CCN(C)S(=O)(=O)Nc1ccc(F)c(Oc2ccc3ncn(C4CC5(CCN(C6CCC(c7cc8c(cc7F)c(N7CCC(=O)NC7=O)nn8C)CC6)CC5)C4)c(=O)c3c2)c1C#N` (single isomer, unassigned) [Compound 8, 6-[2-cyano-3-[[ethyl(methyl)sulfamoyl]amino]-6-fluoro-phenoxy]-3-[7-[4-[3-(2,4-dioxohexahydropyrimidin-1-yl)-5-fluoro-1-methyl-indazol-6-yl]cyclohexyl]-7-azaspiro[3.5]nonan-2-yl]-4-oxo-quinazoline], the concentration at 6 h in series [1] (setting [3]) came to 738 ± 299 ng/g; in series [1] (setting [4]) it was 984 ± 364 ng/mL.

Turning to `CCN(C)S(=O)(=O)Nc1ccc(F)c(Oc2ccc3ncn([C@H]4COC5(CCC(N6CCC(c7cc8c(cc7F)c(N7CCC(=O)NC7=O)nn8C)C(F)(F)C6)CC5)C4)c(=O)c3c2)c1C#N` (single isomer, unassigned) [Compound 38], the concentration at 6 h in series [1] (liver, BID × 10 days, read-out: Concentration in Liver (mean ± SEM)) is 17200 ± 2570 ng/g; in series [1] (plasma, BID × 10 days, read-out: Concentration in Plasma (mean ± SEM)), 18300 ± 2240 ng/mL.

As to `CCN(C)S(=O)(=O)Nc1ccc(F)c(Oc2ccc3ncn([C@H]4COC5(CCN(C6CC7(C6)CN(c6cc8c(cc6F)c(N6CCC(=O)NC6=O)nn8C)C7)CC5)C4)c(=O)c3c2)c1C#N` [Compound 26, (3R)-3-[6-[2-cyano-3-[[ethyl(methyl)sulfamoyl]amino]-6-fluoro-phenoxy]-4-oxo-quinazolin-3-yl]-8-[2-[3-(2,4-dioxohexahydropyrimidin-1-yl)-5-fluoro-1-methyl-indazol-6-yl]-2-azaspiro[3.3]heptan-6-yl]-1-oxa-8-azaspiro[4.5]decane], the results for the concentration at 6 h in series [1] (setting [3]) and in series [1] (setting [4]) were 4720 ± 367 ng/g and 16000 ± 2060 ng/mL, respectively.

In the case of `CO[C@H]1CCN(S(=O)(=O)Nc2ccc(F)c(Oc3ccc4ncn([C@H]5COC6(CCN(C7CC8(C7)CN(c7cc9c(cc7F)c(N7CCC(=O)NC7=O)nn9C)C8)CC6)C5)c(=O)c4c3)c2C#N)C1` [Compound 157, (3S)-N-[2-cyano-3-[3-[(3R)-8-[2-[3-(2,4-dioxohexahydropyrimidin-1-yl)-5-fluoro-1-methyl-indazol-6-yl]-2-azaspiro[3.3]heptan-6-yl]-1-oxa-8-azaspiro[4.5]decan-3-yl]-4-oxo-quinazolin-6-yl]oxy-4-fluoro-phenyl]-3-methoxy-pyrrolidine-1-sulfonamide], the concentration at 6 h in series [2] (setting [5]) came out at 2450 ± 217 ng/g; in series [2] (setting [6]), 12500 ± 745 ng/mL.

`CCN(C)S(=O)(=O)Nc1ccc(F)c(Oc2ccc3ncn(C4CC5(CCN(C6CC7(CCN(c8cc9c(cc8F)c(N8CCC(=O)NC8=O)nn9C)CC7)C6)CC5)C4)c(=O)c3c2)c1C#N` (stereo not shown) [Compound 198, 6-[2-cyano-3-[[ethyl(methyl)sulfamoyl]amino]-6-fluoro-phenoxy]-3-[7-[7-[3-(2,4-dioxohexahydropyrimidin-1-yl)-5-fluoro-1-methyl-indazol-6-yl]-7-azaspiro[3.5]nonan-2-yl]-7-azaspiro[3.5]nonan-2-yl]-4-oxo-quinazoline]: the figures for the concentration at 6 h in series [2] (setting [5]) and in series [2] (setting [6]) were 3320 ± 479 ng/g and 7640 ± 799 ng/mL, respectively.
